This is an account of results in patent US7622441B2, “Sustained release pharmaceutical compounds to prevent abuse of controlled substances” (Shire LLC, priority 2002, dated 2009).

The nature of data set [1]: Stability of narcotic conjugates in water (narcotic release, abuse resistance tests). Conditions: for H2O (1 h, 90 C.) / H2O (24 h, RT): numbers based upon narcotic release; for % Release of Narcotic in Water: neutral pH. Format: physicochemical. From the text:
It is also possible to further stabilize any unstable conjugates by tethering to a larger peptide. […] The conjugates are also stable at a wide range of pH's.

Data set [2] can be described thus: Pharmacokinetics of peptide-amphetamine conjugates by oral administration (serum amphetamine by ELISA). Conditions: rat. (In an ELISA, binding on a coated surface is turned into a signal by an enzyme label.)
Data set [3] in a line: Pharmacokinetics of narcotic conjugates by oral administration (serum hydrocodone/oxycodone by ELISA). Conditions: for Shape of the Curve: rat serum concentration curve vs. parent drug; for Peak Time / % AUC / % Cmax: rat serum; for Peak Time: multiple of parent drug's peak time; for % AUC / % Cmax: vs. equivalent dose of parent drug.
The next data set concerns male Sprague-Dawley rats. Nature of the data set: Analgesia by paw lick latency (PLL), hot plate nociceptive model, subcutaneous injection. Format: in vivo. Set-up: Paw Lick Latency: unit not given beside the values. The settings on record: for PLL: rat hot plate, cutoff time of 45 seconds; for Percent: PLL above basal level compared to HC; for Delta: basal PLL of untreated rats subtracted.

For data set [4] the following is noted: intranasal; for Comments (curve) / Peak Time / % AUC / % Cmax: serum, buffer PBS; for Peak Time: multiple of hydrocodone's peak time; for % AUC / % Cmax: vs. hydrocodone.
[5] abbreviates: male, Sprague-Dawley, in vivo, po.
Setting [6] is: Table 12, 15 min., equivalent dose.
The mark [7] stands for this setting: Table 12, 30 min, equivalent dose.
[8] abbreviates: Table 12, Basal (0 h), before treatment.
Where [9] appears, read: oral solution in water, equivalent amount of amphetamine.

Where a name gives a salt, the structure may show the parent alone. Read-outs that look alike come from different tables or passages of the source. Where a SMILES comes first, the peptide text is derived from it. Where no end group is shown, it is not given here. [ ]: non-standard residue; d: D form. The star is where a group is joined. ξ: configuration not given here. X2 = COc1ccc2c3c1OC1C(O*)=CCC4C(C2)N(C)CCC314; ξL = CC(C)CC(N)C(=O)O

Regarding `COc1ccc2c3c1OC1C(OC(=O)C(C)(C)N)=CCC4C(C2)N(C)CCC314` (stereo not shown) [Aib-HC], in data set [1], the “H2O (1 h, 90 C.)” value is given as 45 and the “H2O (24 h, RT)” value amounted to 0.
A word on the AUC(0-t): it is the area under the concentration-time curve up to a stated or last time point. A word on the Cmax: it is the maximum level reached in the sampled fluid or tissue. Turning to `C[C@H](N)Cc1ccccc1` [Amphetamine, d-amphetamine sulfate, reference compound], in data set [2] (setting [5]), the AUC(0-t) was found to be 530 ng·h/mL and the Cmax came out at 193 ng/mL.
In the case of `COc1ccc2c3c1OC1C(OC(=O)C4CCCN4C(=O)C(C)NC(=O)OC(C)(C)C)=CCC4C(C2)N(C)CCC314` (stereo not drawn) [Boc-Ala-Pro-HC, Boc-Ala-Pro-Hydrocodone], in data set [3], the “Shape of the Curve” value is given as “++Clearance”, the “Peak Time” value was 1X, the “% AUC” value was 60% and the “% Cmax” value came out at 97%.
With `COc1ccc2c3c1OC1C(OC(=O)C(CC(C)C)NC(=O)CNC(=O)CNC(=O)CNC(=O)CN)=CCC4C(C2)N(C)CCC314` (stereo not drawn) [GGGGL-HC, Gly-Gly-Gly-Gly-Leu-Hydrocodone] (H-GGGG[ξL]-X2), the “Paw Lick Latency” value is on record as 5 with male Sprague-Dawley rats (Table 12, 60, 2× the equivalent dose); 3.6 in the data set on male Sprague-Dawley rats (Table 12, 60, equivalent dose); 3 in the data set on male Sprague-Dawley rats (Table 12, 15 min., 2× the equivalent dose); 6.8 with male Sprague-Dawley rats (setting [6]); 5.6 in the data set on male Sprague-Dawley rats (Table 12, 30 min, 2× the equivalent dose); 5.6 in the data set on male Sprague-Dawley rats (setting [7]). Further, the “Paw Lick Latency” value came out at 7.5 in the data set with male Sprague-Dawley rats (setting [8]) and 2.2 in the data set on male Sprague-Dawley rats (Table 12, Basal (0 h), group given 2× the equivalent dose).
As for `COc1ccc2c3c1OC1C(OC(=O)C(N)CCC(=O)O)=CCC4C(C2)N(C)CCC314` (stereo not shown) [Glu-HC, 6-O-Glu-Hydrocodone], in data set [1] (0 Hours), the “% Release of Narcotic in Water” value is reported as 0%. The “% Release of Narcotic in Water” value in data set [1] (1 Hour) amounted to 4%. Besides, the “% Release of Narcotic in Water” value in data set [1] (6 Hours) is recorded as 19%. Further, the “% Release of Narcotic in Water” value in data set [1] (24 Hours) is on record as 42%. Further, in data set [1], the “H2O (1 h, 90 C.)” value came out at 100 and the “H2O (24 h, RT)” value is recorded as 79. In addition, in data set [4], the “Comments (curve)” value is “Flat curve”, the “Peak Time” value is 6X, the “% AUC” value is on record as 60% and the “% Cmax” value was 55%.
In the case of `COc1ccc2c3c1OC1C(OC(=O)CN)=CCC4C(C2)N(C)CCC314` (stereo not shown) [Gly-HC, 6-O-Gly-Hydrocodone], the “% Release of Narcotic in Water” value in data set [1] (0 Hours) is given as 6%; in data set [1] (1 Hour), 8%; in data set [1] (6 Hours), 11%; in data set [1] (24 Hours) it was 32%. For the same compound, the “H2O (1 h, 90 C.)” value in data set [1] is reported as 63. Besides, the “H2O (24 h, RT)” value in data set [1] is reported as 26.
Consider `COc1ccc2c3c1O[C@H]1C(=O)CC[C@H]4[C@@H](C2)N(C)CC[C@]314` [Hydrocodone], for which the “Comments (curve)” value in data set [4] is “Rapid”. Further, the “Peak Time” value in data set [4] worked out at 1X. The “% AUC” value in data set [4] was 100%. In addition, in data set [4], the “% Cmax” value worked out at 100%. Besides, the PLL in the data set on male Sprague-Dawley rats (30 minutes, subcutaneous) is on record as 40; in the data set with male Sprague-Dawley rats (45 minutes, subcutaneous), 26.7. Further, the Percent with male Sprague-Dawley rats (30 minutes) and in the data set with male Sprague-Dawley rats (45 minutes) was 100% throughout. The Delta in the data set on male Sprague-Dawley rats (30 minutes) turned out to be 34; in the data set with male Sprague-Dawley rats (45 minutes), 19.9. Further, the “Paw Lick Latency” value in the data set with male Sprague-Dawley rats (Table 11, 15 min., subcutaneous) is 25.5; in the data set on male Sprague-Dawley rats (Table 11, 30 min, subcutaneous), 42.4; in the data set with male Sprague-Dawley rats (Table 11, 45 min., subcutaneous), 36.3; with male Sprague-Dawley rats (Table 11, 60 min., subcutaneous) it was 26.6; in the data set on male Sprague-Dawley rats (Table 11, Basal (0 h), before treatment), 5.5; in the data set on male Sprague-Dawley rats (Table 12, 60, equivalent dose), 15.1. The “Paw Lick Latency” value in the data set on male Sprague-Dawley rats (setting [6]) was determined as 31.9; with male Sprague-Dawley rats (setting [7]), 24.5; in the data set with male Sprague-Dawley rats (setting [8]) it was 5.6.
In the case of `CCC(C)C(N)C(=O)OC1=CCC2C3Cc4ccc(OC)c5c4C2(CCN3C)C1O5` (stereo not shown) [Ile-HC], in data set [1], the “H2O (1 h, 90 C.)” value came out at 46 and the “H2O (24 h, RT)” value is 16.
Take `COc1ccc2c3c1OC1C(OC(=O)C(CC(C)C)NC(=O)C(CC(C)C)NC(=O)C(N)CC(C)C)=CCC4C(C2)N(C)CCC314` (stereo not shown) [LLL-HC]: the “Paw Lick Latency” value is reported as 3.2 in the data set on male Sprague-Dawley rats (Table 12, 60, equivalent dose); 5.7 in the data set on male Sprague-Dawley rats (setting [6]); 3.9 in the data set with male Sprague-Dawley rats (setting [7]); 4.1 with male Sprague-Dawley rats (setting [8]).
For the compound `COc1ccc2c3c1O[C@H]1C(OC(=O)[C@@H](N)CC(C)C)=CC[C@H]4[C@@H](C2)N(C)CC[C@]314` [Leu-HC, Leu-Hydrocodone], in data set [1], the “H2O (1 h, 90 C.)” value turned out to be 49 and the “H2O (24 h, RT)” value was 10.
Take `CC(Cc1ccccc1)NC(=O)[C@@H](N)Cc1ccccc1` (stereo partly shown) [Phe-Amp]: in data set [2] (oral), the “Cmax and AUC compared with those of the parent drug” value is listed as “nearly equal”. In data set [2] (setting [9]), the AUC 0-12 h came to 505 ng·h/mL and the Cmax is reported as 175 +/− 77.
Regarding `COc1ccc2c3c1OC1C(OC(=O)C(N)Cc4ccccc4)=CCC4C(C2)N(C)CCC314` (stereo not shown) [Phe-HC], in data set [1], the “H2O (1 h, 90 C.)” value is reported as 54.
In the case of `COc1ccc2c3c1O[C@H]1C(OC(=O)[C@@H]4CCCN4)=CC[C@H]4[C@@H](C2)N(C)CC[C@]314` [Pro-HC, 6-O-Pro-Hydrocodone], the “% Release of Narcotic in Water” value is listed as 4% in data set [1] (0 Hours), 11% in data set [1] (1 Hour), 25% in data set [1] (6 Hours) and 71% in data set [1] (24 Hours). Besides, the “H2O (1 h, 90 C.)” value in data set [1] stood at 97. Moreover, the “H2O (24 h, RT)” value in data set [1] is on record as 71.
As for `COc1ccc2c3c1OC1C(OC(=O)OC[C@H]4OC(O)C(O)[C@H]4O)=CCC4[C@@H](C2)N(C)CC[C@]314.Cl` (stereo partly shown) [Ribose-HC], in data set [3], the “Shape of the Curve” value is on record as “No change”, the “Peak Time” value was determined as 1X, the “% AUC” value is listed as 106% and the “% Cmax” value is given as 132%. The “H2O (24 h, RT)” value in data set [1] was 4. For the same compound, in data set [4], the “Comments (curve)” value is “No change”, the “Peak Time” value is 1X, the “% AUC” value was 20% and the “% Cmax” value amounted to 34%. Besides, in data set [4] (compound still contained small amounts of free hydrocodone), the “inhibition of IN absorption” value is given as “approximately 80%”.
Take `CC(Cc1ccccc1)NC(=O)C(N)CO` (stereo not shown) [Ser-Amp]: in data set [2] (setting [9]), the AUC 0-12 h was 290 ng·h/mL and the Cmax is given as 146 +/− 85. Besides, the “Percent Amphetamine (AUC 0-12 h)” value in data set [2] (oral, AUC relative to amphetamine) turned out to be 55%. Moreover, the “Percent Amphetamine (Cmax)” value in data set [2] (oral, Cmax relative to amphetamine) is given as 76%.
Turning to `COc1ccc2c3c1OC1C(OC(=O)C(N)CO)=CCC4C(C2)N(C)CCC314` (stereo not shown) [Ser-HC], in data set [1], the “H2O (1 h, 90 C.)” value is listed as 98 and the “H2O (24 h, RT)” value was 45.
Take Ala-Pro-Hydrocodone [Ala-Pro-HC]: in data set [1], the “H2O (1 h, 90 C.)” value amounted to 100 and the “H2O (24 h, RT)” value turned out to be 100.
Consider “Glu5-HC: pentapeptide conjugate of hydrocodone (SEQ ID NO: 2) (EEEEE; also: hydrocodone conjugate)”, for which the “H2O (1 h, 90 C.)” value in data set [1] amounted to 53.
